Test results reported in patent EP1134585B1, “Biosensor and method for the monitoring of herbicides” (CONSIGLIO NAZIONALE DELLE RICERCHE, priority 2000, dated 2001).

What was measured:
[1] = biological target: D1 protein Ser264->Ala (Chlamydomonas reinhardtii, UniProt P07753, S264A); details: codes MZ1 MZ3 MZ5; cited from earlier work
[2] = test system: D1 protein Ser284->Gly; details: Chenopodium album; cited from earlier work
[3] = biological target: D1 protein Phe255->Tyr (Chlamydomonas reinhardtii, UniProt P07753, F255Y); details: code Ar207+; cited from earlier work
[4] = test system: D1 protein Val219->Ile Thr220->Ala Ser270->Tyr; details: code L5; cited from earlier work
[5] = test system: D1 protein Ser264->Thr; details: Nicotiana tabacum (cell culture); cited from earlier work
[6] = test system: thylakoids from Amaranthus retroflexus, Mutant; type: biochemical; details: herbicide concentration 10^-6 M
[7] = test system: thylakoids from Amaranthus retroflexus, Wild-type; assay: Biosensor fluorescence response (Table D), wild-type biomediator; type: biochemical; details: herbicide concentration 10^-6 M
[8] = biological target: D1 protein Phe255->Tyr Ser264->Ala (Synechococcus elongatus, UniProt P04996, F255Y/S264A); details: code D5; cited from earlier work
[9] = biological target: D1 protein A1a251->Cys (Chlamydomonas reinhardtii, UniProt P07753, A251C); details: cited from earlier work
[10] = biological target: D1 protein Ala250->Asp (Chlamydomonas reinhardtii, UniProt P07753, A250D); details: cited from earlier work
[11] = biological target: D1 protein A1a250->His (Chlamydomonas reinhardtii, UniProt P07753, A250H); details: cited from earlier work
[12] = test system: PS II; details: PS II treated with CdCl2, refrigeration at 5°C, flow 0,2-2,0 ml/m
From the text: To further increase the stability of the biomediator the usefulness of a system for the refrigeration of the solution containing herbicide forwarded into the measuring cell experimentally was observed.

[13] = biological target: D1 protein Ala250->Arg (Chlamydomonas reinhardtii, UniProt P07753, A250R); details: cited from earlier work
[14] = test system: PS II isolated from thermophilic cyanobacteria; details: immobilized PS II, Clark electrode (Koblizek et al.); cited from earlier work
[15] = biological target: D1 protein Ala250→Ser Phe255→IIe (Chlamydomonas reinhardtii, UniProt P07753, A250S/F255I); details: cited from earlier work
[16] = biological target: D1 protein A1a250→IIe (Chlamydomonas reinhardtii, UniProt P07753, A250I); details: cited from earlier work
[17] = biological target: D1 protein A1a250->Tyr (Chlamydomonas reinhardtii, UniProt P07753, A250Y); details: cited from earlier work
[18] = biological target: D1 protein Ala250->Asn (Chlamydomonas reinhardtii, UniProt P07753, A250N); details: cited from earlier work
[19] = test system: Phe216->Leu; details: cited from earlier work
[20] = test system: Gly228->Arg; details: cited from earlier work
[21] = test system: Thr226->Ala; details: cited from earlier work
[22] = test system: PhC2,6―Pro; details: cited from earlier work
[23] = test system: Gly228->Val; details: cited from earlier work
[24] = test system: I1e229→Met; details: R. capsulatus; cited from earlier work
[25] = test system: I1e228->Leu; details: cited from earlier work
[26] = test system: Tyr222->Phe; details: code T4; cited from earlier work
[27] = test system: Ile229->Thr; details: cited from earlier work
[28] = test system: Thr226->Met; details: cited from earlier work
[29] = test system: I1e229->Ala; details: cited from earlier work
[30] = test system: Ile229->Ser; details: cited from earlier work
[31] = test system: monoclonal antibodies; details: ELISA (Schneider et al. 1994); cited from earlier work
[32] = test system: I1e229->Cys; details: cited from earlier work
[33] = test system: Phe216->Thr; details: cited from earlier work
[34] = test system: Gly192->Asp; details: cited from earlier work
[35] = test system: Phe216→Val; details: cited from earlier work
[36] = biological target: D1 protein Lysa)238->Val (Synechocystis sp., UniProt P16033, K238V); details: Lysa)238->Val (Arg in other organisms); cited from earlier work
[37] = test system: Ile229->Met; details: R. shaeroides; cited from earlier work
[38] = test system: Phe216→Ser ValM263→Phe; details: double mutant Phe216→Ser ValM263→Phe, code T3; cited from earlier work
[39] = test system: -Phe216→Ser; details: code T6; cited from earlier work
[40] = test system: Tyr222->Gly; details: code YG222; cited from earlier work
[41] = test system: Arg217→His Ser223→Ala; details: double mutant Arg217→His Ser223→Ala; cited from earlier work
[42] = test system: Ser223->Pro; details: code SP223; cited from earlier work
[43] = test system: GluM34->Lys; details: code M6; cited from earlier work
[44] = test system: Ile229->Met~.Met; details: code M29; cited from earlier work
[45] = biological target: D1 protein Phe211→Gly Met214→Gln (Chlamydomonas reinhardtii, UniProt P07753, F211G/M214Q); details: cited from earlier work

CC(C)Cc1cc([N+](=O)[O-])cc([N+](=O)[O-])c1O [i-Dinoseb]
Supersensitivity R/S [1]: i-Dinoseb 0,7

CC(C)N1C(=O)c2ccccc2NS1(=O)=O [Bentazon]
Supersensitivity R/S [2]: Bentazon 0,5

CNC(=O)Nc1nc2ccccc2s1 [Benzthiazuron]
Supersensitivity R/S [3]: 0,3

CCC(C)c1cc([N+](=O)[O-])cc([N+](=O)[O-])c1O (centres unmarked) [Dinoseb]
Supersensitivity R/S [4]: Dinoseb 0,7 | Supersensitivity R/S [5]: Dinoseb 0,13 | Area % inhibition Mutant [6]: 93% | Area % inhibition Wild-type [7]: 99% | Supersensitivity R/S [8]: 0,08

COC(=O)Nc1cccc(OC(=O)Nc2cccc(C)c2)c1 [Phenmedipham]
Supersensitivity R/S [9]: 0,8

CNC(=O)N(C)c1nc2ccccc2s1 [Metabenzthiazuron]
Supersensitivity R/S [3]: zuron 0,3

N#Cc1cc(Br)c(O)c(Br)c1 [Bromoxynil]
Supersensitivity R/S [10]: Bromoxynil 0,16 | Supersensitivity R/S [11]: Bromoxynil 0,16 | Area % inhibition Mutant [6]: 95% | sensitivity (concentration) [12]: one order of magnitude higher | Supersensitivity R/S [13]: Bromoxynil 0,3 | sensitivity [14]: 10^-7 mol/l | Area % inhibition Wild-type [7]: 97% | Supersensitivity R/S [15]: 0,2 | Supersensitivity R/S [16]: Bromoxynil 0,3 | Supersensitivity R/S [8]: 0,8 | Supersensitivity R/S [17]: Bromoxynil 0,4 | Supersensitivity R/S [18]: Bromoxynil 0,2

CCNc1nc(NC(C)C)nc(SC)n1 [Ametryn]
Resistance R/S [19]: Ametryn 3,1 | Resistance R/S [20]: Ametryn 4 | Resistance R/S [21]: Ametryn 4 | Resistance R/S [22]: Ametryn 1,9 | Resistance R/S [23]: Ametryn 5,3 | Area % inhibition Mutant [6]: 21% | Resistance R/S [24]: Ametryn 5,3 | Area % inhibition Wild-type [7]: 99% | Resistance R/S [25]: Ametryn 2,5 | Resistance R/S [26]: Ametryn 330 | Resistance R/S [27]: Ametryn 1,9 | Resistance R/S [28]: Ametryn 2,5

CSc1nc(NC(C)C)nc(NC(C)C)n1 [Prometryn]
Resistance R/S [19]: Prometryn 1,4 | Resistance R/S [20]: Prometryn 1,1 | Resistance R/S [21]: Prometryn 1,4 | Resistance R/S [23]: Prometryn 1,4 | Resistance R/S [24]: Prometryn 2 | Resistance R/S [27]: Prometryn 1,4 | Resistance R/S [28]: Prometryn 1,1

CNc1nc(NC(C)C)nc(SC)n1 [Desmetryn]
Area % inhibition Mutant [6]: 10% | Area % inhibition Wild-type [7]: 92% | Resistance R/S [26]: Desmetryn 50

COc1nc(NC(C)C)nc(NC(C)C)n1 [Prometon]
Resistance R/S [19]: Prometon 1,8 | Resistance R/S [20]: Prometon 1,2 | Resistance R/S [21]: Prometon 1,8 | Resistance R/S [22]: Prometon 1,8 | Resistance R/S [23]: Prometon 1,3 | Resistance R/S [24]: Prometron 1,2 | Resistance R/S [27]: Prometon 1,2 | Resistance R/S [29]: Prometron 1,2

CCNc1nc(Cl)nc(NC(C)C)n1 [Atrazine]
Resistance R/S [19]: Atrazine 4,2 | Supersensitivity R/S [9]: Atrazin 0,8 | Resistance R/S [20]: Atrazine 5,4 | Resistance R/S [30]: Atrazine 1,8 | Supersensitivity R/S [10]: Atrazine 0,25 | sensitivity [31]: 100 pM | Resistance R/S [32]: Atrazine 2 | Resistance R/S [21]: Atrazin 3,1 | Resistance R/S [22]: Atrazine 1,9 | Resistance R/S [23]: Atrazine 4,2 | Area % inhibition Mutant [6]: 15% | Resistance R/S [33]: Atrazine 3,5 | sensitivity (concentration) [12]: lower than nanomolar | Resistance R/S [34]: Atrazine 6 | Supersensitivity R/S [13]: Atrazin 0.25 | Resistance R/S [24]: Atrazine 5,4 | Resistance R/S [35]: Atrazine 1,8 | Area % inhibition Wild-type [7]: 96% | Supersensitivity R/S [15]: Atrazine 0,5 | Resistance R/S [25]: Atrazine 3,5 | Supersensitivity R/S [16]: Atrazine 0,5 | Resistance R/S [26]: Atrazine >600 | Supersensitivity R/S [36]: Atrazine 0,6 | Supersensitivity R/S [17]: Atrazine 0,4 | Supersensitivity R/S [18]: Atrazine 0,3 | Resistance R/S [37]: Atrazine >7 | Resistance R/S [27]: Atrazine 3,7 | Resistance R/S [28]: Atrazine 3,1 | Resistance R/S [29]: Atrazine 1,8

CCNc1nc(Cl)nc(NCC)n1 [Simazine]
Area % inhibition Mutant [6]: 14% | sensitivity (concentration) [12]: lower than nanomolar | Area % inhibition Wild-type [7]: 95%

CCNc1nc(NC(C)(C)C)nc(SC)n1 [Terbutryn]
Resistance R/S [20]: Terbutryn 1,3 | Resistance R/S [38]: Terbutryn 166 | Resistance R/S [39]: Terbutryn >2800 | Supersensitivity R/S [30]: Terbutryn 0,4 | Supersensitivity R/S [10]: Terbutryn 0,4 | Resistance R/S [21]: Terbutryn 1,7 | Supersensitivity R/S [21]: Terbutryn 0,6(?) | Resistance R/S [40]: Terbutryn >3000 | Resistance R/S [41]: Terbutryn 222 | Resistance R/S [42]: Terbutryn >3000 | Resistance R/S [23]: Terbutryn 1,5 | Resistance R/S [43]: Terbutryn > 125 | Resistance R/S [34]: Terbutryn 300 | Resistance R/S [44]: Terbutryn 120 | Resistance R/S [24]: Terbutryn 1,9 | Supersensitivity R/S [15]: 0,9 | Supersensitivity R/S [16]: Terbutryn 0,5 | Resistance R/S [28]: Terbutryn 1,7

Cc1nnc(-c2ccccc2)c(=O)n1N [Metamitron]
Supersensitivity R/S [3]: Metamitron 0,3 | Supersensitivity R/S [45]: 0,4

CCC(C)n1c(=O)[nH]c(C)c(Br)c1=O (centres unmarked) [Bromacil]
Supersensitivity R/S [3]: Bromacil 0,9

c1cnc2c(c1)ccc1cccnc12 [o-Phenanthroline]
Resistance R/S [38]: o-Phenathroline 67 | Resistance R/S [39]: o-Phenanthroline 333 | Resistance R/S [30]: o-Phenanthroline 1,3 | Supersensitivity R/S [21]: line 0,03 | Resistance R/S [40]: o-Phenanthroline 26 | Resistance R/S [41]: o-Phenanthroline 5 | Resistance R/S [42]: o-Phenanthroline 6,25 | Resistance R/S [43]: o-Phenanthroline >25 | Resistance R/S [34]: o-Phenanthroline 3 | Resistance R/S [44]: o-Phenanthro me 11 | Resistance R/S [26]: o-Phenanthroline 10
